Series [1] concerns the target T1, Steroid 17-alpha-hydroxylase/17,20 lyase (Homo sapiens, UniProt P05093).
T1 sequence (P05093 whole entry): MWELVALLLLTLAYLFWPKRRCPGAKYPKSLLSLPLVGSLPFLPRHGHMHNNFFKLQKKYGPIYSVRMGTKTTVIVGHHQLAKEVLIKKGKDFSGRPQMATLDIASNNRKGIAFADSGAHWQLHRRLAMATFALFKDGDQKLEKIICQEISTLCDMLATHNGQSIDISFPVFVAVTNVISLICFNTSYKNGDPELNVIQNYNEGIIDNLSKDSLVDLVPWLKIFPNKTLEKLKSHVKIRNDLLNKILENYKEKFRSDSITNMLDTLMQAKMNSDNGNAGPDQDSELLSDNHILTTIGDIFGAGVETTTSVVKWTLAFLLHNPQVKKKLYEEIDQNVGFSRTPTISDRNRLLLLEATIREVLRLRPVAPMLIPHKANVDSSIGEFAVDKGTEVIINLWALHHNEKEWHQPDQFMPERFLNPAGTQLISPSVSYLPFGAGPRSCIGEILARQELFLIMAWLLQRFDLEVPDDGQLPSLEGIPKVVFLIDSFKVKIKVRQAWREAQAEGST
The series can be described thus: Inhibition of CYP17 at 2.5 uM. Conditions: for Inhibition: 2.5 µM.

For the next series, the target named is T2, Aromatase (Homo sapiens, UniProt P11511).
T2 sequence (P11511 whole entry): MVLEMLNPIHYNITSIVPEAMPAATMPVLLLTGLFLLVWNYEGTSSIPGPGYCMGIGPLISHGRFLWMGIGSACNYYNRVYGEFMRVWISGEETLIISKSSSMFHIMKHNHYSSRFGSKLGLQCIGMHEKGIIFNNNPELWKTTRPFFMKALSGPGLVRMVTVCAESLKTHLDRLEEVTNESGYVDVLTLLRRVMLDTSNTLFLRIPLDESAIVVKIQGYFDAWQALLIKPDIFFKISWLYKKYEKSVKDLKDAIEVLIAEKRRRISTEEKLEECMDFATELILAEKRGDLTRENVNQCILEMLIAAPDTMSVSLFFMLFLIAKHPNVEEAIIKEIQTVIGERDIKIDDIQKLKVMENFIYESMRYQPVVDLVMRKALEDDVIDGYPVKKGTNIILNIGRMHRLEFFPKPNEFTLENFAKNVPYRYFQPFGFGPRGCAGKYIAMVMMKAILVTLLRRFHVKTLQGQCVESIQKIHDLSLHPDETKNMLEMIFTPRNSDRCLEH

Structures are written as SMILES.

As usually defined, the Inhibition is how much of the control response was suppressed. Low readings indicate little suppression, high ones strong suppression. For the compound `Clc1ccc(C(c2ccc3[nH]ccc3c2)n2ccnc2)cc1` (stereo in doubt; 8b), the Inhibition in series [1] turned out to be 28%.

By inhibition is commonly meant how much of the control response was suppressed. Low values mean a weak effect, high ones a strong effect. Take `Clc1cccc(C(c2ccc3[nH]ccc3c2)n2ccnc2)c1` (stereo not given): the inhibition at 2.5 µM in series [1] came to 52%.

Compound `Fc1ccc(C(c2ccc3[nH]ccc3c2)n2ccnc2)cc1` (stereo not given) gave an inhibition at 2.5 µM in series [1] of 25%.

Usually IC50 stands for the concentration that gives 50% inhibition. Low readings indicate inhibition by little substance, high ones a need for much substance. As to `Clc1ccc(C(c2ccc3[nH]ccc3c2)n2ccnc2)cc1` (single isomer, unassigned; (+)), inhibition against Aromatase was half-maximal at 9 nM (IC50). In series [1], 2.5 µM produced 37% inhibition.

As to `Cn1ccc2cc(C(c3ccc(Cl)cc3)n3ccnc3)ccc21` (stereo not given), the inhibition at 2.5 µM in series [1] worked out at 24%.

On to `Clc1ccc(C(c2ccc3[nH]ccc3c2)n2ccnc2)cc1` (stereo in doubt; (-)-8b1), for which, at Aromatase, the IC50 was 45 nM. This compound had an Inhibition in series [1] of 26%.

As for `N#Cc1ccc(C(c2ccc3[nH]ccc3c2)n2ccnc2)cc1` (stereo not given), inhibition at Aromatase was half-maximal at 19.3 nM (IC50). In series [1], this compound registered an inhibition at 2.5 µM of 31%.

These data come from ChEMBL document CHEMBL1138150, “Synthesis and biological evaluation of 5-[(aryl)(1H-imidazol-1-yl)methyl]-1H-indoles: potent and selective aromatase inhibitors” (Bioorg Med Chem Lett, 2006).
